Here are results for 1 compound from patent publication US10905651B1, “Zeinmersome nanocarriers for drug delivery to the liver” (King Abdulaziz University, priority 2020, dated 2021).

Assay [1] has as its system TAA-induced hepatic fibrosis rats. As to the kind of experiment: Inflammatory and oxidative markers in liver homogenate of TAA-induced hepatic fibrosis rats. In kind it is in vivo, rat. As to conditions: two months; for IL-6 level in liver homogenate (reversal of TAA-induced increase): FIG. 5A; for TNF-α level in liver homogenate (reversal of TAA-induced increase): FIG. 5B; for MDA level in liver homogenate (reversal of TAA-induced increase): FIG. 6A; for GSH level in liver homogenate (reversal of TAA-induced decrease): FIG. 6B. Here is the method: Rats were given freshly prepared TAA (0.9% w/v in saline solution, 200 mg/kg, ip) twice weekly for eight weeks. A normal control (NC) group of rats (n=8) received injections of the vehicle twice weekly for eight weeks. The TAA-treated rats were randomly assigned to groups (n=8), including a test group for each dosage of a free drug (not encapsulated in ZMS), each dosage of zeinmersomes encapsulating the drug, and a positive control group (PC) having hepatic fibrosis but receiving a vehicle-only treatment instead of a drug treatment. Five groups of rats (n=8) were given freshly prepared TAA (0.9% w/v in saline solution, 200 mg/kg, ip) twice weekly for eight weeks and a normal control (NC) group received vehicle injections, as described in Example 4. The five TAA groups included a positive control group (PC, untreated) and four groups treated with low and high doses (2 and 4 mg/kg/day) of OM as raw drug (OL & OH, respectively) and the same low and high doses (2 and 4 mg/kg/day) of OM formulated as zeinmersomes (OLZMS & OHZMS, respectively). The OM standard drug was suspended in distilled water containing 0.25% w/v carboxymethyl cellulose. The doses were given by oral gavage once daily for two months. […] At the end of treatment duration, blood samples were withdrawn from the retro-orbital plexus of the rats under light ether anesthesia. Plasma was separated and kept at −80° C. until analysis. Then, the rats were sacrificed by cervical dislocation under ether anesthesia. Liver and duodenum were isolated and parts of each were kept in 10% formalin-saline for histopathological examination. Other portions of liver tissue were homogenized. The plasma levels of ALT and AST and the homogenate levels of IL-6, reduced glutathione (GSH), TNF-α, malondialdehyde (MDA), and protein content were measured using ELISA kits (MyBioSource, Inc. CA, USA). In addition, the concentrations of olmesartan in plasma and liver homogenate were measured by HPLC/MS. A part of the liver of each animal was rapidly dissected out, washed, and homogenized in phosphate-buffered saline (0.01M PBS, pH 7.4) using a TissueLyser II (Qiagen; Venlo, Netherlands) at 4° C. to produce a 10% homogenate. The homogenates were centrifugated at 10000 rpm for 15 min at 4° C. and the supernatant was kept at −80° C. till time of analysis. The levels of TNF-α, IL-6, malondialdehyde (MDA), and reduced glutathione (GSH) were measured by the ELISA kits using a micro plate reader (Versa Max, Molecular Devices). The protein content in the liver homogenate was determined by using a colorimetric kit based on Bradford method (Bradford 1976) and the levels of IL-6, TNF-α, GSH, and MDA were expressed/mg protein. The IL-6 level was measured by using the competitive enzyme immunoassay technique utilizing a polyclonal anti-IL-6 antibody and an IL-6-HRP conjugate. The assay sample and buffer were incubated together with IL-6-HRP conjugate in pre-coated plate for one hour. After washing, the wells were then incubated with a substrate for HRP enzyme. The product of the enzyme-substrate reaction formed a blue colored complex. Finally, a stop solution was added to stop the reaction, which then turned the solution yellow. Absorbance was read at 450 nm in a microplate reader. The TNF-α level was measured by using the principle of double antibody sandwich ELISA technique is used. Anti-TNF-α antibody was pre-coated on the wells. Add biotin labeled anti-TNF-α antibodies to combine with the antigens on immune complexes. Avidin-Biotin-Peroxidase Complex was added, and unbound conjugates were washed away with wash buffer. TMB substrates were used to visualize HRP enzymatic reaction producing a blue color product that changed into yellow after adding acidic stop solution. The density of yellow is proportional to TNF-α amount of sample captured in plate. Absorbance was read at 450 nm. The GSH level was measured by using the principle of double antibody sandwich ELISA technique. Anti-GSH antibody was pre-coated on the wells. […]

Assay [2] has the same test system. As to the kind of experiment: Assessment of liver function (plasma ALT and AST) in TAA-induced hepatic fibrosis rats. The class given is in vivo, rat. As to conditions: mean ± SEM, n=8. Here is the method: The protocol for this study was approved by the King Abdulaziz University Research Ethics Committee and adhered to the international guidelines for the Care and Use of Laboratory Animals. Adult Sprague-Dawley male rats weighing 200-250 g were obtained from King Fahd Research Center and housed in cages at 20-22° C. room temperature in a 12 h light-dark cycle. After one week of acclimatization, rats were used in the experiment. Food and water were available ad libitum. Rats were given freshly prepared TAA (0.9% w/v in saline solution, 200 mg/kg, ip) twice weekly for eight weeks. A normal control (NC) group of rats (n=8) received injections of the vehicle twice weekly for eight weeks. The TAA-treated rats were randomly assigned to groups (n=8), including a test group for each dosage of a free drug (not encapsulated in ZMS), each dosage of zeinmersomes encapsulating the drug, and a positive control group (PC) having hepatic fibrosis but receiving a vehicle-only treatment instead of a drug treatment. Five groups of rats (n=8) were given freshly prepared TAA (0.9% w/v in saline solution, 200 mg/kg, ip) twice weekly for eight weeks and a normal control (NC) group received vehicle injections, as described in Example 4. The five TAA groups included a positive control group (PC, untreated) and four groups treated with low and high doses (2 and 4 mg/kg/day) of OM as raw drug (OL & OH, respectively) and the same low and high doses (2 and 4 mg/kg/day) of OM formulated as zeinmersomes (OLZMS & OHZMS, respectively). The OM standard drug was suspended in distilled water containing 0.25% w/v carboxymethyl cellulose. The doses were given by oral gavage once daily for two months. […] At the end of treatment duration, blood samples were withdrawn from the retro-orbital plexus of the rats under light ether anesthesia. Plasma was separated and kept at −80° C. until analysis. Then, the rats were sacrificed by cervical dislocation under ether anesthesia. Liver and duodenum were isolated and parts of each were kept in 10% formalin-saline for histopathological examination. Other portions of liver tissue were homogenized. The plasma levels of ALT and AST and the homogenate levels of IL-6, reduced glutathione (GSH), TNF-α, malondialdehyde (MDA), and protein content were measured using ELISA kits (MyBioSource, Inc. CA, USA). In addition, the concentrations of olmesartan in plasma and liver homogenate were measured by HPLC/MS. Data are expressed as mean±SEM Comparisons between different groups were carried out using one-way analysis of variance (ANOVA) followed by Bonferroni test for multiple comparisons. […] The levels of ALT and AST were measured by using ELISA commercially available kits according to the manufacturer's protocol.

The mark [3] stands for this setting: high dose 4 mg/kg/day oral gavage once daily for two months.
Setting [4] is: low dose 2 mg/kg/day oral gavage once daily for two months.

As for `CCCc1nc(C(C)(C)O)c(C(=O)OCc2oc(=O)oc2C)n1Cc1ccc(-c2ccccc2-c2nnn[nH]2)cc1` [OM, (5-methyl-2-oxo-1,3-dioxol-4-yl)methyl 5-(2-hydroxypropan-2-yl)-2-propyl-3-[[4-[2-(2H-tetrazol-5-yl)phenyl]phenyl]methyl]imidazole-4-carboxylate], in assay [1] (high dose 4 mg/kg/day oral), the “IL-6 level in liver homogenate (reversal of TAA-induced increase)” value is on record as “significantly reversed”, the “TNF-α level in liver homogenate (reversal of TAA-induced increase)” value is given as “significantly reversed”, the “MDA level in liver homogenate (reversal of TAA-induced increase)” value is “significantly reversed” and the “GSH level in liver homogenate (reversal of TAA-induced decrease)” value is “significantly reversed”. In assay [1] (low dose 2 mg/kg/day oral), the “IL-6 level in liver homogenate (reversal of TAA-induced increase)” value is reported as “All treatments except for OL significantly reversed”, the “TNF-α level in liver homogenate (reversal of TAA-induced increase)” value is recorded as “All treatments except for OL significantly reversed”, the “MDA level in liver homogenate (reversal of TAA-induced increase)” value is listed as “All treatments except for OL significantly reversed” and the “GSH level in liver homogenate (reversal of TAA-induced decrease)” value is listed as “All treatments except for OL significantly reversed”. Also, in assay [2] (setting [3]), the “plasma ALT” value is given as 81.41 U/L and the “plasma AST” value amounted to 169.00 U/L. In addition, in assay [2] (setting [4]), the “plasma ALT” value stood at 114.88 U/L and the “plasma AST” value came to 198.32 U/L.
